From patent publication US9328099B2, “Cyanomethylpyrazole carboxamides as janus kinase inhibitors” (Merck Sharp & Dohme Corp., priority 2011, dated 2016)

Experiments:
JAK1 = JAK1 (Homo sapiens (Human), UniProt P23458); assay: Jak Biochemical HTRF Assay, JAK1; conditions: HTRF biochemical assay, GST-tagged catalytic domain; top concentration tested […]; read-out: JAK1 IC50
Description: (§1) Jak Biochemical HTRF Assay Protocol
(§2) Subsequent reagent additions employed an Agilent Bravo.

JAK2 = JAK2 (Homo sapiens (Human), UniProt O60674); assay: Jak Biochemical HTRF Assay, JAK2; conditions: HTRF biochemical assay, GST-tagged catalytic domain; top concentration tested […]
Description: as §1, §2

Sequence of JAK1 (P23458 875-1153): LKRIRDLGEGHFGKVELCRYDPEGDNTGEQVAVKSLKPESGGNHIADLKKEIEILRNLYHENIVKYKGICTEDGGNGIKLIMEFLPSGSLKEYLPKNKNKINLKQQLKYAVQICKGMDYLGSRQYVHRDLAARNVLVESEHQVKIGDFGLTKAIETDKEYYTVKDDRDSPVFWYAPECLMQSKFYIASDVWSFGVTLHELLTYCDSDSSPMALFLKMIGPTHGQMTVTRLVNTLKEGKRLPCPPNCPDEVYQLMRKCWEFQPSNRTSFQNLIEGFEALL
Sequence of JAK2 (O60674 849-1124): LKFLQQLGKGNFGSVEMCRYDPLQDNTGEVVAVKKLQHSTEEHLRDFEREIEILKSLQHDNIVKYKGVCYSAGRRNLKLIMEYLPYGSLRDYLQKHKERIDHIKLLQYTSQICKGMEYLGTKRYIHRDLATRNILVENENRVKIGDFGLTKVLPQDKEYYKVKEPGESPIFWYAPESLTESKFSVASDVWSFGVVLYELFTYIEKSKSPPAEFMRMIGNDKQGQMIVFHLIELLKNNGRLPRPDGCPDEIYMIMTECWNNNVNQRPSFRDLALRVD

SMILES: Cc1cc(N2CCC(CC#N)(n3cc(C(N)=O)c(Nc4ccc(F)cc4)n3)CC2)ccc1F [Example 3-42, 1-[4-(cyanomethyl)-1-(4-fluoro-3-methylphenyl)piperidin-4-yl]-3-[(4-fluorophenyl)amino]-1H-pyrazole-4-carboxamide]
- IC50 (JAK1): 12 nM
- IC50 (JAK2): 287 nM

SMILES: Cc1cccc(N2CCC(CC#N)(n3cc(C(N)=O)c(Nc4ccc(F)cc4)n3)CC2)c1F [Example 3-43, 1-[4-(cyanomethyl)-1-(2-fluoro-3-methylphenyl)piperidin-4-yl]-3-[(4-fluorophenyl)amino]-1H-pyrazole-4-carboxamide]
- IC50 (JAK1): 10 nM
- IC50 (JAK2): 295 nM

SMILES: N#CCC1(n2cc(C(N)=O)c(Nc3ccc(F)cc3)n2)CCN(c2cc(F)ccn2)CC1 [Example 3-44, 1-[4-(cyanomethyl)-1-(4-fluoropyridin-2-yl)piperidin-4-yl]-3-[(4-fluorophenyl)amino]-1H-pyrazole-4-carboxamide]
- IC50 (JAK1): 0.2 nM
- IC50 (JAK2): 6 nM

SMILES: N#CCC1(n2cc(C(N)=O)c(Nc3ccc(F)cc3)n2)CCN(c2ccc(F)c(F)c2)CC1 [Example 3-45, 1-[4-(cyanomethyl)-1-(3,4-difluorophenyl)piperidin-4-yl]-3-[(4-fluorophenyl)amino]-1H-pyrazole-4-carboxamide]
- IC50 (JAK1): 2 nM
- IC50 (JAK2): 70 nM

SMILES: N#CCC1(n2cc(C(N)=O)c(Nc3ccc(F)cc3)n2)CCN(c2ccncc2)CC1 [Example 3-46, 1-[4-(cyanomethyl)-1-pyridin-4-ylpiperidin-4-yl]-3-[(4-fluorophenyl)amino]-1H-pyrazole-4-carboxamide]
- IC50 (JAK1): 3 nM
- IC50 (JAK2): 78 nM

SMILES: Cc1ncncc1N1CCC(CC#N)(n2cc(C(N)=O)c(Nc3ccc(F)cc3)n2)CC1 [Example 3-47, 1-[4-(cyanomethyl)-1-(4-methylpyrimidin-5-yl)piperidin-4-yl]-3-[(4-fluorophenyl)amino]-1H-pyrazole-4-carboxamide]
- IC50 (JAK1): 13 nM
- IC50 (JAK2): 181 nM

SMILES: Cc1cncc(N2CCC(CC#N)(n3cc(C(N)=O)c(Nc4ccc(F)cc4)n3)CC2)c1 [Example 3-48, 1-[4-(cyanomethyl)-1-(5-methylpyridin-3-yl)piperidin-4-yl]-3-[(4-fluorophenyl)amino]-1H-pyrazole-4-carboxamide]
- IC50 (JAK1): 1 nM
- IC50 (JAK2): 26 nM

SMILES: CC(C)(O)Cc1cccc(N2CCC(CC#N)(n3cc(C(N)=O)c(Nc4ccc(F)cc4)n3)CC2)n1 [Example 3-49, 1-{4-(cyanomethyl)-1-[6-(2-hydroxy-2-methylpropyl)pyridin-2-yl]piperidin-4-yl}-3-[(4-fluorophenyl)amino]-1H-pyrazole-4-carboxamide]
- IC50 (JAK1): 5 nM
- IC50 (JAK2): 147 nM

SMILES: N#CCC1(n2cc(C(N)=O)c(Nc3ccc(F)cc3)n2)CCN(c2cccc(CF)n2)CC1 [Example 3-50, 1-{4-(cyanomethyl)-1-[6-(fluoromethyl)pyridin-2-yl]piperidin-4-yl}-3-[(4-fluorophenyl)amino]-1H-pyrazole-4-carboxamide]
- IC50 (JAK1): 3 nM
- IC50 (JAK2): 39 nM

SMILES: N#CCC1(n2cc(C(N)=O)c(Nc3ccc(F)cc3)n2)CCN(c2cccnc2F)CC1 [Example 3-51, 1-[4-(cyanomethyl)-1-(2-fluoropyridin-3-yl)piperidin-4-yl]-3-[(4-fluorophenyl)amino]-1H-pyrazole-4-carboxamide]
- IC50 (JAK1): 0.06 nM
- IC50 (JAK2): 0.6 nM

SMILES: Cc1ccc(N2CCC(CC#N)(n3cc(C(N)=O)c(Nc4ccc(F)cc4)n3)CC2)cn1 [Example 3-52, 1-[4-(cyanomethyl)-1-(6-methylpyridin-3-yl)piperidin-4-yl]-3-[(4-fluorophenyl)amino]-1H-pyrazole-4-carboxamide]
- IC50 (JAK1): 0.4 nM
- IC50 (JAK2): 8 nM

SMILES: COc1ccc(N2CCC(CC#N)(n3cc(C(N)=O)c(Nc4ccc(F)cc4)n3)CC2)cn1 [Example 3-53, 1-[4-(cyanomethyl)-1-(6-methoxypyridin-3-yl)piperidin-4-yl]-3-[(4-fluorophenyl)amino]-1H-pyrazole-4-carboxamide]
- IC50 (JAK1): 0.4 nM
- IC50 (JAK2): 9 nM

SMILES: N#CCC1(n2cc(C(N)=O)c(Nc3ccc(F)cc3)n2)CCN(c2cccc(F)n2)CC1 [Example 3-54, 1-[4-(cyanomethyl)-1-(6-fluoropyridin-2-yl)piperidin-4-yl]-3-[(4-fluorophenyl)amino]-1H-pyrazole-4-carboxamide]
- IC50 (JAK1): 0.3 nM
- IC50 (JAK2): 4 nM

SMILES: N#CCC1(n2cc(C(N)=O)c(Nc3ccc(F)cc3)n2)CCN(c2cc(C(F)(F)F)ccn2)CC1 [Example 3-55, 1-{4-(cyanomethyl)-1-[4-(trifluoromethyl)pyridin-2-yl]piperidin-4-yl}-3-[(4-fluorophenyl)amino]-1H-pyrazole-4-carboxamide]
- IC50 (JAK1): 1 nM
- IC50 (JAK2): 75 nM

SMILES: Cc1cc(N2CCC(CC#N)(n3cc(C(N)=O)c(Nc4ccc(F)cc4)n3)CC2)cnc1F [Example 3-56, 1-[4-(cyanomethyl)-1-(6-fluoro-5-methylpyridin-3-yl)piperidin-4-yl]-3-[(4-fluorophenyl)amino]-1H-pyrazole-4-carboxamide]
- IC50 (JAK1): 1 nM
- IC50 (JAK2): 23 nM

SMILES: CC(C)(C)OC(=O)N1CCC(CC#N)(n2cc(C(N)=O)c(Nc3ccc(S(C)(=O)=O)cc3)n2)CC1 [Example 4-1, tert-Butyl 4-(4-carbamoyl-3-{[4-(methylsulfonyl)phenyl]amino}-1H-pyrazol-1-yl)-4-(cyanomethyl)piperidine-1-carboxylate]
- IC50 (JAK1): 0.1 nM
- IC50 (JAK2): 1 nM

SMILES: CC(C)OC(=O)c1ccc(Nc2nn(C3(CC#N)CCN(C(=O)OC(C)(C)C)CC3)cc2C(N)=O)cc1 [Example 4-2, tert-butyl 4-[4-carbamoyl-3-({4-[(1-methylethoxy)carbonyl]phenyl}amino)-1H-pyrazol-1-yl]-4-(cyanomethyl)piperidine-1-carboxylate]
- IC50 (JAK1): 2 nM
- IC50 (JAK2): 20 nM

SMILES: CC(C)(C)OC(=O)N1CCC(CC#N)(n2cc(C(N)=O)c(Nc3cccc(Cn4ccnc4)c3)n2)CC1 [Example 4-3, tert-butyl 4-(4-carbamoyl-3-{[3-(1H-imidazol-1-ylmethyl)phenyl]amino}-1H-pyrazol-1-yl)-4-(cyanomethyl)piperidine-1-carboxylate]
- IC50 (JAK1): 0.6 nM
- IC50 (JAK2): 11 nM

SMILES: N#CCC1(n2cc(C(N)=O)c(Nc3cccc(Cn4nnc5ccccc54)c3)n2)CCN(C(=O)OCC(F)(F)F)CC1 [Example 4-4, 2,2,2-trifluoroethyl 4-(3-{[3-(1H-benzotriazol-1-ylmethyl)phenyl]amino}-4-carbamoyl-1H-pyrazol-1-yl)-4-(cyanomethyl)piperidine-1-carboxylate]
- IC50 (JAK1): 0.5 nM
- IC50 (JAK2): 23 nM

SMILES: CC(C)(C)OC(=O)N1CCC(CC#N)(n2cc(C(N)=O)c(Nc3cnc(C#N)nc3)n2)CC1 [Example 4-6, tert-butyl 4-{4-carbamoyl-3-[(2-cyanopyrimidin-5-yl)amino]-1H-pyrazol-1-yl}-4-(cyanomethyl)piperidine-1-carboxylate]
- IC50 (JAK1): 3 nM
- IC50 (JAK2): 38 nM

SMILES: CC(C#N)C1(n2cc(C(N)=O)c(Nc3ccc(F)cc3)n2)CCN(C(=O)OC(C)(C)C)CC1 (stereo not drawn) [Example 5-1, tert-Butyl 4-(4-carbamoyl-3-((4-fluorophenyl)amino)-1H-pyrazol-1-yl)-4-(1-cyanoethyl)piperidine-1-carboxylate]
- IC50 (JAK1): 34 nM
- IC50 (JAK2): 162 nM
